Assay results reported in article PMC4456216 (Nature structural & molecular biology, 2015).

Key:
CBP KIX domain = test: Isothermal titration calorimetry; set-up: species or system mouse; details: read-out: Dissociation constant (KD), CBP KIX, ITC, 25°C, 10 mM MES pH 6.5, 50 mM NaCl, CBP KIX titrated into TAD, KD from a representative experiment with standard error for fit to one-site binding model (n = 2 or 3), nd = no detectable binding under experimental conditions
CRY1 CC peptide = test: Isothermal titration calorimetry; set-up: species or system mouse; details: read-out: Dissociation constant (KD), CRY1 CC, ITC, 25°C, 10 mM MES pH 6.5, 50 mM NaCl, CRY1 CC titrated into TAD, KD from a representative experiment with standard error for fit to one-site binding model (n = 2 or 3), nd = no detectable binding under experimental conditions

Substance: BMAL1 619X: BMAL1 TAD truncation mutant that removed the C-terminal seven residues
- Kd (CBP KIX domain): 4.44 ± 0.23 µM
- Kd (CRY1 CC peptide): 19.7 ± 2.57 µM
